Entries after “also recorded” stand apart in the source; their conditions may differ.
How the values were obtained:
[1] = Stability check of the dye (temperature, shelf life, light); format: physicochemical
Procedure: (§1) The pure hydrogen form of the compound is having the pH of 2.8. The salt form of the compound is stable up to 300° C. without the change of physical and chemical characters. The compound in aqueous solution in a very diluted form (5×10^−6 concentration) is pale yellow in color with the naked eye and the concentrated solution is reddish brown in color.
The compound retained its stability for about a year without any contamination or chemical decay.

[2] = Stability of the compound cum dye at the sub zero temperatures; format: physicochemical
From the text: In yet another embodiment stability of the compound cum Dye at the sub Zero temperatures is seen. The compound in its diluted form 5×10^−6 was taken in a microfuge tube and kept at −20 degree centigrade and seen in the frozen state under UV light.
The compound in its diluted form 5×10^−6 was taken in a microfuge tube and kept at −20 degree centigrade and seen in the frozen state under UV light.

[3] = Solubility of the compound; format: physicochemical; conditions: for solubility in organic solvents: ethanol, methanol, acetone
[4] = pH of the compound and pH sensitivity of emissions; format: physicochemical
Procedure: as §1
The dye has a pH of 2.8 and their spectral emissions are not affected at different pH range i.e. from pH 2.8–8.0.

ticks/fleas of dogs = assay: Veterinary remedy: killing ticks/fleas of dogs; format: in vivo, ticks and fleas
From the text: In yet another embodiment, the utility of the dye as a Veterinary remedy for ticks and fleas of pets is seen. The extract is used as veterinary remedy for killing ticks/fleas of dogs. 5×10^−6 concentration of dye in 1:200 dilutions killed ticks and fleas in less than 20 seconds. The extract was used as veterinary remedy for killing ticks/fleas of dogs. 5×10^−8 concentration of the purified compound cum dye killed ticks and fleas in less than 20 seconds.

ants = assay: Pesticidal effect (filter paper soaked in the dye); format: in vivo; conditions: filter paper soaked in the dye left on the workbench; next day full of dead ants
From the text: In yet another embodiment, the pesticidal effect of the compound cum dye is noticed. […] The filter paper soaked in the dye was left unattended on the workbench. Next day it was noticed full of dead ants. […] The filter paper soaked in the dye was left unattended on the workbench. Next day it was noticed full of dead ants.

E. coli (wild type) = assay: Anti-microbial test (zone of inhibition, filter paper disk on seeded agar); format: cell-based; conditions: 10 mg/ml of the sample soaked in filter paper disks, 37° C., 24 hours
Procedure: In yet another embodiment, anti-microbial test of the compound cum dye is done. […] As the marine dye is, a phenolic compound and phenolic compounds are generally having Anti-microbial activity, the anti-microbial assay was performed with this compound and the zone of inhibition was observed. E. coli (wild type) culture was grown overnight in MacConkey's broth 50 ml in a conical flask (100 ml). Antibiotic assay agar medium was prepared and sterilized. It was then brought to a temperature of 50 degree centigrade and 1 ml of E. coli (wild type) culture was added to it. The culture was mixed with antibiotic assay agar medium and was allowed to solidify. 10 mg/ml of the sample was prepared and soaked in filter paper disks. It was then placed upon the said antibiotic assay agar medium seeded with E. coli. It was then incubated at 37° C. in an incubator for 24 hours.

[5] = Biosurfactant nature (shaking of solutions); format: physicochemical; conditions: 0.001 mg–0.01 mg per ml solutions

Phenolic sulphated silicated polysaccharide [PSSP-1]
photolysis after light treatment ([1]; exposure to light, listed as dye): does not undergo photolysis after exposure to light; also recorded: did not undergo photolysis after light treatment
temperature up to which the dye is stable (no alteration of the spectral property) ([1]; heating, fluorescent spectral properties unchanged): up to 300 degree Centigrade
duration of retained stability without contamination or chemical decay ([1]; room temperature): about a year
persistence of fluorescence at the room temperature ([1]; room temperature): at least 1 year
duration of retained stability without contamination or chemical decay ([1]; room temperature, listed as dye): above a year
fluorescence in the frozen state ([2]; diluted form 5×10^−6, −20 degree centigrade, under UV light): persisted without any deterioration
fluorescence after freezing in liquid nitrogen ([2]; frozen in the liquid nitrogen): remained unaffected
solubility in organic solvents [3]: insoluble in the organic solvents including ethanol, methanol and acetone
solubility in organic solvents ([3]; listed as dye): insoluble in the organic solvents like ethanol, methanol and acetone
solubility in water [3]: soluble in water
solubility in water ([3]; listed as dye): more than the solubility characters of Fluorescein; also recorded: highly water-soluble
pH [4]: 2.8
effect of pH on spectral emissions ([4]; pH 2.8–8.0): not affected
time to kill ticks and fleas (ticks/fleas of dogs; 5×10^−6 concentration of dye in 1:200 dilutions): less than 20 seconds
time to kill ticks and fleas (ticks/fleas of dogs; 5×10^−8 concentration of the purified compound cum dye): less than 20 seconds
toxicity to insects (ants): toxic to insects
zone of inhibition (E. coli (wild type); listed as compound cum dye): zone of inhibition is observed
zone of inhibition (E. coli (wild type); listed as dye): Zone of inhibition surrounding the filter disk was observed
frothing on shaking [5]: frothing was seen
frothing on shaking ([5]; listed as dye): frothing is seen
